The values below come from patent US4855284A, “Calcium and magnesium complexes of phytohemagglutinin-polyheteroglycans, their preparation and pharmaceutical formulations” (Intex Pharmazeutische Produkte AG, priority 1985, dated 1989).

For experiment [1], the system named is ulcers and mucosal edema in the stomach. As to the kind of experiment: alcohol ulcer test (Robert), cytoprotective action. In kind it is in vivo, Wistar rats. As to conditions: oral 500 mg/kg, 10 animals. As for the experimental part:
The cytoprotective action was tested by the alcohol ulcer test of A. J. E. Robert and coworkers, Am. J. Physiol. […] Liver Physiol. […] Usually, Wistar rats in groups with 10 animals in each are kept without food for 1 day and then treated once through a stomach tube with 1 to 2 ml of anhydrous ethanol which contains 0.5% hydrochloric acid.
After the death of the animals, the length of the resulting ulcers and the size of the resulting mucosal edema in the stomach are measured and compared with control animals not treated with the product. A basic aluminum complex of sucrose polysulfate (sucralfate, see below) was used for comparison.

The test system of experiment [2] is edema induced by carrageen in the rat paw. Description: carrageen rat paw test (Winter), antiinflammatory action. In kind it is in vivo, rat (female, CFY strain). As to conditions: 10 mg/kg oral.

As for Sucralfate, in experiment [1], the “Inhibition in %, Edema” value is 79% and the “Inhibition in %, Ulcer” value was 56%.
As for `COc1ccc2c(c1)c(CC(=O)O)c(C)n2C(=O)c1ccc(Cl)cc1` [Indomethacin], the “Inhibition in % (of swelling)” value in experiment [2] came out at 46%.
